Columns and labels:
IL-6 = assay: Initial drug screen (Prestwick Chemical Library), IL-6 ELISA of medium; format: cell-based, human; conditions: 2.5 μM, 48 hours, HCA2 fibroblasts, 0.2% serum
Experimental: The initial drug screen was performed in a 96-well format using automated liquid handling with a Biomek FX (Beckman Coulter, CA). Senescent cells were plated 24 hours after X-irradiation at 7,500 cells per well in 96-well plates. Six days after plating the senescent cells, the pre-senescent cells were plated at 7,500 cells per well in 96-well plates. Twenty-four hours after pre-senescent plating, both pre-senescent and senescent cells were washed and incubated in low (0.2%) serum for 48 hours to arrest cell proliferation of the pre-senescent cells. […] Forty-eight hours after compound addition, the medium in each well was removed and frozen for assay by ELISA to quantitate the levels of IL-6. The cells, which remained in the wells after the medium was removed, were lysed and ATP levels were measured (ATPlite 1-step assay, Perkin Elmer, MA) to exclude compounds that lowered IL-6 through toxicity (cell death). Experimental wells in each plate were normalized to plate mean or same-plate DMSO controls for the ELISA and ATP assays, respectively.
To identify small molecules that may be potential SASP modulators, a screening strategy that entailed administering compounds to parallel 96-well plates containing human fibroblasts (strain HCA2) that were either quiescent or senescent was developed. […] After 48 hours, the medium from each well was removed, and the cells were lysed. […] Cell lysates were assayed for ATP as a surrogate for cell number.

SASP = assay: Multiplex ELISA of conditioned media from irradiated IMR90 fibroblasts (50 cytokines and growth factors); format: cell-based, human; conditions: 10 μM apigenin immediately after irradiation, analyzed 6 days later; less than 2 fold not considered significant
Experimental: To determine whether or to what extent apigenin suppressed the entire SASP, multiplex ELISA was used to interrogate the relative secretion of 50 cytokines and growth factors. IMR90 fibroblasts were treated with 10 μM apigenin or DMSO immediately after irradiation and analyzed 6 days later. Cells were washed and incubated in serum-free media without apigenin to generate conditioned media. Conditioned media from […], apigenin- or DMSO-treated irradiated IMR90 cells and control (mock-irradiated, DMSO-treated) cells were analyzed by ELISA for various SASP factors (FIG. 19).

HCA2 human fibroblasts = conditions: 2.5 μM, 48 hours
Experimental: The initial drug screen was performed in a 96-well format using automated liquid handling with a Biomek FX (Beckman Coulter, CA). Senescent cells were plated 24 hours after X-irradiation at 7,500 cells per well in 96-well plates. Six days after plating the senescent cells, the pre-senescent cells were plated at 7,500 cells per well in 96-well plates. Twenty-four hours after pre-senescent plating, both pre-senescent and senescent cells were washed and incubated in low (0.2%) serum for 48 hours to arrest cell proliferation of the pre-senescent cells. Drugs from the Prestwick Chemical Library, which contains 1120 bio-available compounds in DMSO, were given to the cells at 2.5 μM in media containing 0.2% serum. Forty-eight hours after compound addition, the medium in each well was removed and frozen for assay by ELISA to quantitate the levels of IL-6. The cells, which remained in the wells after the medium was removed, were lysed and ATP levels were measured (ATPlite 1-step assay, Perkin Elmer, MA) to exclude compounds that lowered IL-6 through toxicity (cell death). Experimental wells in each plate were normalized to plate mean or same-plate DMSO controls for the ELISA and ATP assays, respectively.
To identify small molecules that may be potential SASP modulators, a screening strategy that entailed administering compounds to parallel 96-well plates containing human fibroblasts (strain HCA2) that were either quiescent or senescent was developed. The compounds tested comprised the Prestwick Chemical Library, a collection of approximately 1,120 Federal Drug Administration-approved drugs. The compounds were added to duplicate wells at a single concentration (2.5 μM). After 48 hours, the medium from each well was removed, and the cells were lysed. […] Cell lysates were assayed for ATP as a surrogate for cell number.

[1] = system: K-Ras induced lung tumors; assay: K-Ras mediated lung tumorigenesis in INK-ATTAC:K-RasLA1 mice; format: in vivo, mouse; design: dose or concentration left out as unconfirmed; conditions: INK-ATTAC3:K-RasLA1 and INK-ATTAC5:K-RasLA1 mice, from three weeks of age; 21 days after treatment
Description: Briefly, INK-ATTAC (p16^Ink4a apoptosis through targeted activation of caspase) transgenic mice have an FK506-binding protein (FKBP)-caspase 8 (Casp8) fusion polypeptide under the control of the p16^Ink4a promoter (see FIG. 10 providing a vector sequence for the transgene and FIG. 11 providing sequences for components of the transgene including the promoter sequence). In the presence of AP20187, a synthetic drug that induces dimerization of a membrane bound myristoylated FKBP-Casp8 fusion protein, senescent cells specifically expressing the FKBP-Casp8 fusion protein via the p16^Ink4a promoter undergo programmed cell death (apoptosis) (see, e.g., Baker, Nature, supra, FIG. 1 therein). Two founder lines (INK-ATTAC^3 and INK-ATTAC^5) were each bred with the K-rasLA1 tumor model. […]
Two INK-ATTAC:K-RasLA1 were produced (one for INK-ATTAC line 3 and one for line 5). […] Twenty one days after treatment, the mice were sacrificed and tumor multiplicity in lungs was measured. […] In addition, metastasis and overall survival will be monitored after tumor induction in the presence or absence of p16-positive cells.

Compound	IL-6 secretion (ELISA) (IL-6)	secretion of SASP factors (fold difference over control) (SASP)	ATP levels (HCA2 human fibroblasts)	tumor multiplicity in lungs (tumor numbers) [1]
O=c1cc(-c2ccc(O)cc2)oc2cc(O)cc(O)c12 [apigenin, 4′,5,7-trihydroxyflavone]	capable of suppressing IL-6 secretion	suppressed the secretion of several pro-inflammatory cytokines and chemokines, including, for example, TGFA, MCP3, LIF, IFNβ, IL-6, GROA, and IL-2	without altering ATP levels	–
CC[C@H](C(=O)N1CCCC[C@H]1C(=O)O[C@H](CCc1ccc(OC)c(OC)c1)c1cccc(OCC(=O)NCC(CNC(=O)COc2cccc([C@@H](CCc3ccc(OC)c(OC)c3)OC(=O)[C@@H]3CCCCN3C(=O)[C@@H](CC)c3cc(OC)c(OC)c(OC)c3)c2)CN(C)C)c1)c1cc(OC)c(OC)c(OC)c1 [AP20187]	–	–	–	significantly reduced

— US9884065B2, “Inhibiting activity of senescent cells using a glucocorticoid” (Buck Institute for Research on Aging, priority 2011, dated 2018)
